Assay results reported in ChEMBL document CHEMBL1122672, “Substituent branching in phenethylamine-type hallucinogens: a comparison of 1-[2,5-dimethoxy-4-(2-butyl)phenyl]-2-aminopropane and 1-[2,5-dimethoxy-4-(2-methylpropyl)phenyl]-2-aminopropane” (1984).

Key:
Rattus norvegicus [1] = species on record: Rattus norvegicus; test: Compound was evaluated for the drug discrimination assay and the ED50 (potency) was determined in rats; type: functional
Rattus norvegicus [2] = species on record: Rattus norvegicus; test: Compound was evaluated for the drug discrimination assay and the highest percent of LSD correct responses were determined in rats; type: functional

| SMILES | ED50 (Rattus norvegicus [1]) [mg/kg] | LSD (Rattus norvegicus [2]) [%] |
| --- | --- | --- |
| CCC(C)c1cc(OC)c(CC(C)N)cc1OC.Cl (stereo not drawn) | 1.8 | 70 |
| COc1cc(CC(C)N)c(OC)cc1CC(C)C.Cl (stereo not drawn) | 0.536 | 95 |
| COc1cc(CC(C)N)c(OC)cc1C (stereo not drawn) [DOM] | 0.148 | 99 |
| CCN(CC)C(=O)[C@@H]1C=C2c3cccc4[nH]cc(c34)C[C@H]2N(C)C1 [LYSERGIDE] | 0.0077 | 100 |
